This is an account of results in patent US8858997B2, “Formulations and methods for lyophilization and lyophilates provided thereby” (Remedy Pharmaceuticals, Inc., priority 2007, dated 2014).

≈ marks a conversion by molar mass, not a printed value. Where two headings read alike, the source gives them in different places.

Data set [1] is described as follows: Stated physicochemical properties (pKa, water and ethanol solubility). The note with it: 109 mg/L vs. 4 mg/L.
For data set [2] the following is noted: cited from earlier work.
Data set [3] is described as follows: Solubility studies using micronized glibenclamide: unbuffered 2% sucrose and water. Format: physicochemical. As to conditions: for GLB mg/ml (glibenclamide in solution): 2% sucrose in water; for solubility: aqueous buffer, thermodynamic from solid, water without bulking agent. The method, then:
Micronized glibenclamide in 2% sucrose (as a proxy for glucose, fructose, mannose, galactose, mannitol, sorbitol, lactose, trehalose, and other sugars, including mono-saccharides, di-saccharides) in water was prepared, as recorded in the left-hand column of Table 4. In addition, micronized glibenclamide was prepared in water without a bulking agent (see Table 4, right column). These were unbuffered solutions, so that 1) pH was adjusted to the target value, then 2) glibenclamide was added (which lowered the pH) and then 3) pH was re-adjusted up to the target. This was done iteratively until the pH was stable.

The nature of data set [4]: Solubility studies using micronized glibenclamide: unbuffered saline. Format: physicochemical. As to conditions: thermodynamic from solid. The text has this: This was done iteratively until pH was stable. “GLB” indicates glibenclamide.
The nature of data set [5]: Solubility of glibenclamide in buffered water solutions (Britton Robinson). Format: physicochemical. The text has this:
Buffered water solutions (Britton Robinson buffers) were used to determine the amounts of glibenclamide soluble in buffered solutions without added salt or added sugar.

The conditions of data set [6]: all measured pH values from pH 4 to pH 9; Britton-Robinson buffer; cited from earlier work.
For data set [7] the following is noted: 0.1 M, pH 10 phosphate-buffered aqueous solution (300 mOsm/L); cited from earlier work.

In the case of `CCCCNC(=O)NS(=O)(=O)c1ccc(C)cc1` [Tolbutamide], in data set [1], the “times more soluble in water than glibenclamide” value was 24 times. The water solubility in data set [2] is 109 µg/mL (≈ 403 µM).
On to `COc1ccc(Cl)cc1C(=O)NCCc1ccc(S(=O)(=O)NC(=O)NC2CCCCC2)cc1` [Glibenclamide, 5-chloro-N-[2-[4-(cyclohexylcarbamoylsulfamoyl)phenyl]ethyl]-2-methoxy-benzamide], for which the “GLB mg/ml (glibenclamide in solution)” value in data set [3] (pH 7.45) stood at 0.051 mg/mL; in data set [3] (pH 7.50) it was 0.099 mg/mL; in data set [3] (pH 8.24) it was 0.310 mg/mL; in data set [3] (pH 8.66), 1.069 mg/mL; in data set [3] (pH 9.16) it was 2.608 mg/mL; in data set [3] (pH 9.53) it was 3.060 mg/mL. The “GLB mg/ml (glibenclamide in solution)” value came out at 4.103 mg/mL in data set [3] (pH 9.74), 3.811 mg/mL in data set [3] (pH 11.23), 3.416 mg/mL in data set [3] (pH 11.30) and 1.904 mg/mL in data set [3] (pH 11.99). The solubility in data set [3] (pH 7.36, read-out: GLB mg/ml (glibenclamide in solution)) amounted to 0.019 mg/mL (≈ 38.5 µM); in data set [3] (pH 7.55, read-out: GLB mg/ml (glibenclamide in solution)), 0.096 mg/mL (≈ 194 µM); in data set [3] (pH 8.65, read-out: GLB mg/ml (glibenclamide in solution)) it was 0.799 mg/mL (≈ 1620 µM); in data set [3] (pH 8.73, read-out: GLB mg/ml (glibenclamide in solution)), 0.087 mg/mL (≈ 176 µM); in data set [3] (pH 9.13, read-out: GLB mg/ml (glibenclamide in solution)), 0.205 mg/mL (≈ 415 µM); in data set [3] (pH 9.57, read-out: GLB mg/ml (glibenclamide in solution)), 3.97 mg/mL (≈ 8030 µM). Moreover, the solubility in data set [3] (pH 10.28, read-out: GLB mg/ml (glibenclamide in solution)) worked out at 4.87 mg/mL (≈ 9860 µM); in data set [3] (pH 11.19, read-out: GLB mg/ml (glibenclamide in solution)), 4.67 mg/mL (≈ 9460 µM); in data set [3] (pH 11.44, read-out: GLB mg/ml (glibenclamide in solution)), 4.84 mg/mL (≈ 9800 µM); in data set [3] (pH 12.27, read-out: GLB mg/ml (glibenclamide in solution)) it was 2.51 mg/mL (≈ 5090 µM); in data set [4] (0.9% saline in water, pH 8.07, saline or isotonic, Saline 0.9%, pH 8.070, read-out: GLB mg/ml (glibenclamide in solution)) it was 0.024 mg/mL (≈ 48.6 µM); in data set [4] (0.9% saline in water, pH 8.44, saline or isotonic, Saline 0.9%, pH 8.440, read-out: GLB mg/ml (glibenclamide in solution)), 0.109 mg/mL (≈ 221 µM). The solubility in data set [4] (0.9% saline in water, pH 9.18, saline or isotonic, Saline 0.9%, pH 9.180, read-out: GLB mg/ml (glibenclamide in solution)) is 0.435 mg/mL (≈ 881 µM); in data set [4] (0.9% saline in water, pH 9.92, saline or isotonic, Saline 0.9%, pH 9.920, read-out: GLB mg/ml (glibenclamide in solution)), 0.42 mg/mL (≈ 850 µM); in data set [4] (0.9% saline in water, pH 10.48, saline or isotonic, Saline 0.9%, pH 10.480, read-out: GLB mg/ml (glibenclamide in solution)), 0.456 mg/mL (≈ 923 µM); in data set [4] (0.9% saline in water, pH 11.06, saline or isotonic, Saline 0.9%, pH 11.060, read-out: GLB mg/ml (glibenclamide in solution)), 0.445 mg/mL (≈ 901 µM); in data set [4] (0.9% saline in water, pH 11.61, saline or isotonic, Saline 0.9%, pH 11.610, read-out: GLB mg/ml (glibenclamide in solution)), 0.538 mg/mL (≈ 1090 µM); in data set [4] (0.9% saline in water, pH 12.07, saline or isotonic, Saline 0.9%, pH 12.070, read-out: GLB mg/ml (glibenclamide in solution)) it was 0.476 mg/mL (≈ 964 µM). The solubility stood at 0.216 mg/mL (≈ 437 µM) in data set [4] (2% saline in water, pH 12.1, saline or isotonic, Saline 2%, pH 12.10, read-out: GLB mg/ml (glibenclamide in solution)); 0.012 mg/mL (≈ 24.3 µM) in data set [4] (2% saline in water, saline or isotonic, Saline 2%, pH 7.24, read-out: GLB mg/ml (glibenclamide in solution)); 0.028 mg/mL (≈ 56.7 µM) in data set [4] (2% saline in water, saline or isotonic, Saline 2%, pH 7.97, read-out: GLB mg/ml (glibenclamide in solution)); 0.087 mg/mL (≈ 176 µM) in data set [4] (2% saline in water, saline or isotonic, Saline 2%, pH 8.34, read-out: GLB mg/ml (glibenclamide in solution)); 0.214 mg/mL (≈ 433 µM) in data set [4] (2% saline in water, saline or isotonic, Saline 2%, pH 8.89, read-out: GLB mg/ml (glibenclamide in solution)); 0.233 mg/mL (≈ 472 µM) in data set [4] (2% saline in water, saline or isotonic, Saline 2%, pH 8.94, read-out: GLB mg/ml (glibenclamide in solution)). Further, the solubility in data set [4] (2% saline in water, saline or isotonic, Saline 2%, pH 9.49, read-out: GLB mg/ml (glibenclamide in solution)) came out at 0.205 mg/mL (≈ 415 µM); in data set [4] (2% saline in water, saline or isotonic, Saline 2%, pH 10.31, read-out: GLB mg/ml (glibenclamide in solution)), 0.215 mg/mL (≈ 435 µM); in data set [4] (2% saline in water, saline or isotonic, Saline 2%, pH 10.98, read-out: GLB mg/ml (glibenclamide in solution)), 0.192 mg/mL (≈ 389 µM); in data set [4] (2% saline in water, saline or isotonic, Saline 2%, pH 11.49, read-out: GLB mg/ml (glibenclamide in solution)), 0.194 mg/mL (≈ 393 µM); in data set [5] (Britton Robinson buffer in water, aqueous buffer, pH 9.000, read-out: GLB mg/mL (glibenclamide in solution)) it was 0.14 mg/mL (≈ 283 µM); in data set [5] (Britton Robinson buffer in water, pH 9.7, aqueous buffer, pH 9.700, read-out: GLB mg/mL (glibenclamide in solution)), 0.85 mg/mL (≈ 1720 µM). Also, the solubility in data set [5] (Britton Robinson buffer, aqueous buffer, pH 5.3, read-out: GLB mg/mL (glibenclamide in solution)) was 0.01 mg/mL (≈ 20.2 µM); in data set [5] (Britton Robinson buffer, aqueous buffer, pH 8.000, read-out: GLB mg/mL (glibenclamide in solution)), 0.02 mg/mL (≈ 40.5 µM); in data set [5] (Britton Robinson buffer, aqueous buffer, pH 8.3, read-out: GLB mg/mL (glibenclamide in solution)), 0.02 mg/mL (≈ 40.5 µM); in data set [5] (Britton Robinson buffer, pH 6.2, aqueous buffer, pH 6.200, read-out: GLB mg/mL (glibenclamide in solution)), 0.01 mg/mL (≈ 20.2 µM); in data set [5] (Britton Robinson buffer, pH 7.1, aqueous buffer, pH 7.100, read-out: GLB mg/mL (glibenclamide in solution)), 0.01 mg/mL (≈ 20.2 µM); in data set [5] (Britton Robinson buffer, pH 10.1, aqueous buffer, pH 10.100, read-out: GLB mg/mL (glibenclamide in solution)) it was 2.35 mg/mL (≈ 4760 µM). Also, the solubility entry is “below 1 mg/mL” in data set [6] and 500 µg/mL (≈ 1010 µM) in data set [7]. In addition, in data set [2], the ethanol solubility is 5000 µg/mL.
As to `CCOc1cc(CC(=O)N[C@@H](CC(C)C)c2ccccc2N2CCCCC2)ccc1C(=O)O` [Repaglinide], in data set [2] (pH 9), the water solubility was 600 µg/mL (≈ 1330 µM).
